The text below walks through data of patent publication US20040176431A1, “Antiproliferative 2-(sulfo-phenyl)-aminothiazole derivatives and pharmaceutical compositions, and methods for their use” (Pfizer, Inc., priority 2003, published 2004).

The structures appear in SMILES notation.

The test deals with T1, CDK4/cyclin D3 (Homo sapiens, UniProt P11802).
T1 construct: made in house; host or cells: insect cells (baculovirus co-infection)
Put plainly: Inhibition of CDK4/Cyclin D retinoblastoma kinase activity. In kind it is biochemical. The settings on record: for % Inhib CDK4/D @ 0.1 μM / inhibition at 0.1 µM: test compound at 0.1 μM; for % Inhib CDK4/D @ 1 μM / inhibition at 1 µM: test compound at 1 μM (head line shifted: 'mM' printed beside 'Structure'); for % Inhib CDK4/D @ 0.03 / inhibition at 0.03 µM: test compound at 0.03 (unit cell empty, head line shifted; μM); for inhibition at 0.1 µM: read-out: % Inhib CDK4/D @ 0.1 μM; for inhibition at 1 µM: read-out: % Inhib CDK4/D @ 1 μM; for inhibition at 0.03 µM: read-out: % Inhib CDK4/D @ 0.03. Here is the method: Cyclin-dependent kinase activity was measured by quantifying the enzyme-catalyzed, time-dependent incorporation of radioactive phosphate from [^32P]ATP or [^33P]ATP into a protein substrate. Unless noted otherwise, assays were performed in 96-well plates in a total volume of 50 μL, in the presence of 10 mM HEPES (N-[2-hydroxyethyl]piperazine-N′-[2-ethanesulfonic acid]) (pH 7.4), 10 mM MgCl2, 25 μM adenosine triphosphate (ATP), 1 mg/mL ovalbumin, 5 μg/mL leupeptin, 1 mM dithiothreitol, 10 mM β-glycerophosphate, 0.1 mM sodium vanadate, 1 mM sodium fluoride, 2.5 mM ethylene glycol-bis(β-aminoethyl ether)-N,N,N′N′-tetraacetic acid (EGTA), 2% (v/v) dimethylsulfoxide, and 0.03-0.4 μCi [^32/33P]ATP per reaction. Reactions were initiated with enzyme, incubated at 30° C., and terminated after 20 minutes by the addition of ethylenediaminetetraacetic acid (EDTA) to 250 mM. The phosphorylated substrate was then captured on a nitrocellulose or phosphocellulose membrane using a 96-well filtration manifold, and unincorporated radioactivity was removed by repeated washing with 0.85% phosphoric acid. Radioactivity was quantified by exposing the dried membranes to a phosphorimager.
Inhibition was measured relative to control wells that contained all reaction components including 2% (v/v) DMSO but no compound, after subtraction of background radioactivity measured in the absence of enzyme. Apparent Ki values of discrete compounds were measured by assaying enzyme activity in the presence of different inhibitor compound concentrations and subtracting the background radioactivity measured in the absence of enzyme. The kinetic parameters (kcat, Km for ATP) were measured for each enzyme under the usual assay conditions by determining the dependence of initial rates on ATP concentration. Inhibition data were fit to an equation for competitive inhibition using Kaleidagraph (Synergy Software), or were fit to an equation for competitive tight-binding inhibition using the software KineTic (BioKin, Ltd.).
A complex of human CDK4 and genetically truncated (1-264) cyclin D3 was purified using traditional biochemical chromatographic techniques from insect cells that had been co-infected with the corresponding baculovirus expression vectors (see e.g., Meijer and Kim, “Chemical Inhibitors of Cyclin-Dependent Kinases,” Methods in Enzymol., 283, 113-128 (1997)). The enzyme complex (5 nM) was assayed with 0.3-0.5 μg of purified recombinant retinoblastoma protein fragment (Rb) as a substrate. The engineered Rb fragment (residues 386-928 of the native retinoblastoma protein; 62.3 kDa) contains the majority of the phosphorylation sites found in the native 106-kDa protein, as well as a tag of six histidine residues for ease of purification. Phosphorylated Rb substrate was captured by microfiltration on a nitrocellulose membrane and quantified using a phosphorimager as described above. For measurement of tight-binding inhibitors, the assay duration was extended to 60 minutes, during which the time-dependence of product formation was linear and initial rate conditions were met.

T1 sequence (P11802 whole entry): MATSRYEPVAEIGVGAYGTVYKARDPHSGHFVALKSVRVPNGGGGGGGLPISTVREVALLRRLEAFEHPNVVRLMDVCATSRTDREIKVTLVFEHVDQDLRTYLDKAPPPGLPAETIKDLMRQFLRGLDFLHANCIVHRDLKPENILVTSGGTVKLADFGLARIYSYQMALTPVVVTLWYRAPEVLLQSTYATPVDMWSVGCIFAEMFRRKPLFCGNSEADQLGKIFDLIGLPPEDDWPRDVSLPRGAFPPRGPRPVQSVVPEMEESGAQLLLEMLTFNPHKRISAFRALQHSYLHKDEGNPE
T1 sequence (P30281 1-264 partner limits assumed): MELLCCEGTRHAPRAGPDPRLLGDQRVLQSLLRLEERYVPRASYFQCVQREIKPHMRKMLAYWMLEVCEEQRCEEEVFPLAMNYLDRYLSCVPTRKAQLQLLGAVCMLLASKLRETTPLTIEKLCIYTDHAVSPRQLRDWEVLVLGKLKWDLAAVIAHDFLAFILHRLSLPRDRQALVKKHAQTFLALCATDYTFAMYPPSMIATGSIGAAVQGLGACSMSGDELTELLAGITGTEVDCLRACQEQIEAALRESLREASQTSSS

In the case of `Cc1noc(C)c1CS(=O)(=O)c1ccc(Nc2nc(N)c(C(=O)c3c(Cl)cccc3Cl)s2)cc1` [DD(202)], the “% Inhib CDK4/D @ 1 μM” value worked out at 45.2% and the “% Inhib CDK4/D @ 0.03” value is listed as 17%. Moreover, where the note is “0.1 µM”, the “% Inhib CDK4/D @ 0.1 μM” value was 29%.
`Nc1nc(Nc2ccc(SCC3CC3)cc2)sc1C(=O)c1c(Cl)cccc1Cl` [DD(16)]: the inhibition at 0.1 µM is -7%, the inhibition at 1 µM came out at 56.2% and the inhibition at 0.03 µM was -9.4%.
On the same counts, the results for `CN(C)CCCS(=O)(=O)c1ccc(Nc2nc(N)c(C(=O)c3c(Cl)cccc3Cl)s2)cc1` [DD(170)] are 18%, 25.8% and 22%.
For `C=CCCS(=O)(=O)c1ccc(Nc2nc(N)c(C(=O)c3c(Cl)cccc3Cl)s2)cc1` [DD(206)], the “% Inhib CDK4/D @ 1 μM” value amounted to 47.3% and the “% Inhib CDK4/D @ 0.03” value is −11%. Moreover, the “% Inhib CDK4/D @ 0.1 μM” value (0.1 µM) is reported as 24%.
Regarding `CC(C)CCOC(=O)CSc1ccc(Nc2nc(N)c(C(=O)c3c(Cl)cccc3Cl)s2)cc1` [DD(31)], the inhibition at 0.1 µM turned out to be 30%, the inhibition at 1 µM came out at 59.7% and the inhibition at 0.03 µM was found to be 15%.
For `CC(=O)OCCS(=O)(=O)c1ccc(Nc2nc(N)c(C(=O)c3c(Cl)cccc3Cl)s2)cc1` [DD(197)], the inhibition at 0.1 µM was found to be 37%, the “% Inhib CDK4/D @ 1 μM” value came out at 62.3% and the “% Inhib CDK4/D @ 0.03” value was found to be 6.5%.
As for `CC1(CS(=O)(=O)c2ccc(Nc3nc(N)c(C(=O)c4c(Cl)cccc4Cl)s3)cc2)CO1` (stereo not drawn) [DD(220)], the “% Inhib CDK4/D @ 1 μM” value turned out to be 26.3% and the “% Inhib CDK4/D @ 0.03” value is −19%. Moreover, the “% Inhib CDK4/D @ 0.1 μM” value (0.1 µM) is 30%.
For `COc1cccc(C[S+]([O-])c2ccc(Nc3nc(N)c(C(=O)c4c(Cl)cccc4Cl)s3)cc2)c1` (stereo not drawn) [DD(97)], the inhibition at 0.1 µM is 36%, the inhibition at 1 µM was determined as 66.8% and the inhibition at 0.03 µM was -3.5%.
The corresponding values for `CCCSc1cccc(Nc2nc(N)c(C(=O)c3c(Cl)cccc3Cl)s2)c1` [DD(65)] are 7%, 51.1% and 6.5%.
As for `CC(C)OC(=O)CCSc1cccc(Nc2nc(N)c(C(=O)c3c(Cl)cccc3Cl)s2)c1` [DD(78)], the inhibition at 0.1 µM is 22%, the inhibition at 1 µM is 36.2% and the inhibition at 0.03 µM was found to be 13%.
Regarding `COCCSc1cccc(Nc2nc(N)c(C(=O)c3c(Cl)cccc3Cl)s2)c1` [DD(54)], the inhibition at 0.1 µM stood at 34%, the inhibition at 1 µM was determined as 75.2% and the inhibition at 0.03 µM amounted to 20%.
As for `Nc1nc(Nc2ccc([S+]([O-])CCN3CCOCC3)cc2)sc1C(=O)c1c(Cl)cccc1Cl` (stereo not drawn) [DD(119)], the inhibition at 0.1 µM was determined as 36%, the inhibition at 1 µM turned out to be 58% and the inhibition at 0.03 µM is 3.8%.
The corresponding values for `COCC[S+]([O-])c1ccc(Nc2nc(N)c(C(=O)c3c(Cl)cccc3Cl)s2)cc1` (stereo not drawn) [DD(94)] are 51%, 70.9% and 17%.
Consider `CC(=O)OCCSc1cccc(Nc2nc(N)c(C(=O)c3c(Cl)cccc3Cl)s2)c1` [DD(77)], for which the inhibition at 0.1 µM is 30%, the inhibition at 1 µM is 71.9% and the inhibition at 0.03 µM came out at 23%.
On the same counts, the results for `CC(C)OC(=O)CSc1cccc(Nc2nc(N)c(C(=O)c3c(Cl)cccc3Cl)s2)c1` [DD(63)] are 29%, 46.6% and -3.8%.
Turning to `CC(C)CCS(=O)(=O)c1ccc(Nc2nc(N)c(C(=O)c3c(Cl)cccc3Cl)s2)cc1` [DD(173)], the inhibition at 0.1 µM was 17%, the “% Inhib CDK4/D @ 1 μM” value turned out to be 14.5% and the “% Inhib CDK4/D @ 0.03” value is −11%.
For the molecule `Nc1nc(Nc2ccc([S+]([O-])CC3CC3)cc2)sc1C(=O)c1c(Cl)cccc1Cl` (stereo not drawn) [DD(96)], the inhibition at 0.1 µM was 28%, the inhibition at 1 µM is 55.4% and the inhibition at 0.03 µM was -8.1%.
Consider `CCCSc1ccc(Nc2nc(N)c(C(=O)c3c(Cl)cccc3Cl)s2)cc1` [DD(25)], for which the inhibition at 0.1 µM came to 0.4%, the inhibition at 1 µM is 65.5% and the inhibition at 0.03 µM is -10%.
Consider `CN1CCCC(CS(=O)(=O)c2ccc(Nc3nc(N)c(C(=O)c4c(Cl)cccc4Cl)s3)cc2)C1` (stereo not drawn) [DD(187)], for which the inhibition at 0.1 µM amounted to 24%, the “% Inhib CDK4/D @ 1 μM” value is −6.4% and the “% Inhib CDK4/D @ 0.03” value is on record as 6%.
With `Nc1nc(Nc2ccc(S(=O)(=O)CCN3CCCC3)cc2)sc1C(=O)c1c(Cl)cccc1Cl` [DD(167)], the “% Inhib CDK4/D @ 1 μM” value amounted to 0.8% and the “% Inhib CDK4/D @ 0.03” value was −2.5%. For the same molecule, where the note is “0.1 µM”, the “% Inhib CDK4/D @ 0.1 μM” value stood at 17%.
On to `CCN(CC)C(=O)CSc1cccc(Nc2nc(N)c(C(=O)c3c(Cl)cccc3Cl)s2)c1` [DD(41)], for which the inhibition at 0.1 µM came to 33%, the inhibition at 1 µM was 70.3% and the inhibition at 0.03 µM worked out at 28%.
Turning to `Nc1nc(Nc2cccc(SCC3CCCO3)c2)sc1C(=O)c1c(Cl)cccc1Cl` (stereo not drawn) [DD(58)], the inhibition at 0.1 µM amounted to 23%, the inhibition at 1 µM amounted to 72.7% and the inhibition at 0.03 µM turned out to be 11%.
On the same counts, the results for `CN(C)CCC[S+]([O-])c1cccc(Nc2nc(N)c(C(=O)c3c(Cl)cccc3Cl)s2)c1` (stereo not drawn) [DD(130)] are 41%, 56% and 12%.
The corresponding values for `NC(=O)CC[S+]([O-])c1ccc(Nc2nc(N)c(C(=O)c3c(Cl)cccc3Cl)s2)cc1` (stereo not drawn) [DD(108)] are 60%, 73.9% and 14%.
Regarding `COC(=O)/C=C/CS(=O)(=O)c1ccc(Nc2nc(N)c(C(=O)c3c(Cl)cccc3Cl)s2)cc1` [DD(164)], the “% Inhib CDK4/D @ 1 μM” value is given as −6.9% and the “% Inhib CDK4/D @ 0.03” value is given as −7.4%. The “% Inhib CDK4/D @ 0.1 μM” value (0.1 µM) is recorded as 8.6%.
`CCC(CC)C[S+]([O-])c1cccc(Nc2nc(N)c(C(=O)c3c(Cl)cccc3Cl)s2)c1` (stereo not drawn) [DD(156)]: the inhibition at 0.1 µM came out at 25%, the inhibition at 1 µM stood at 15.1% and the inhibition at 0.03 µM turned out to be 17%.
For the molecule `Nc1nc(Nc2cccc([S+]([O-])CC3CCCO3)c2)sc1C(=O)c1c(Cl)cccc1Cl` (stereo not drawn) [DD(138)], the inhibition at 0.1 µM worked out at 34%, the inhibition at 1 µM was found to be 63.8% and the inhibition at 0.03 µM came to 2.9%.
As for `NC(=O)CCSc1cccc(Nc2nc(N)c(C(=O)c3c(Cl)cccc3Cl)s2)c1` [DD(68)], the inhibition at 0.1 µM was 52%, the inhibition at 1 µM was determined as 77.4% and the inhibition at 0.03 µM amounted to 25%.
In the case of `CC(C)CCSc1ccc(Nc2nc(N)c(C(=O)c3c(Cl)cccc3Cl)s2)cc1` [DD(13)], the inhibition at 0.1 µM stood at 4.7%, the inhibition at 1 µM was determined as 35.3% and the inhibition at 0.03 µM worked out at 0.6%.
Turning to `CC(C)CCOC(=O)CS(=O)(=O)c1ccc(Nc2nc(N)c(C(=O)c3c(Cl)cccc3Cl)s2)cc1` [DD(192)], the “% Inhib CDK4/D @ 1 μM” value is recorded as −29% and the “% Inhib CDK4/D @ 0.03” value came out at 5.6%. Besides, the “% Inhib CDK4/D @ 0.1 μM” value (0.1 µM) is recorded as 11%.
Consider `CN(C)CCSc1ccc(Nc2nc(N)c(C(=O)c3c(Cl)cccc3Cl)s2)cc1` [DD(32)], for which the inhibition at 0.1 µM was 14%, the inhibition at 1 µM came to 61.3% and the inhibition at 0.03 µM amounted to 5.5%.
Turning to `Nc1nc(Nc2ccc(S(=O)(=O)CCN3CCCCC3)cc2)sc1C(=O)c1c(Cl)cccc1Cl` [DD(211)], the “% Inhib CDK4/D @ 0.1 μM” value is given as 21%, the “% Inhib CDK4/D @ 1 μM” value is on record as −0.2% and the “% Inhib CDK4/D @ 0.03” value was −11%.
Turning to `CN(C)CC[S+]([O-])c1cccc(Nc2nc(N)c(C(=O)c3c(Cl)cccc3Cl)s2)c1` (stereo not drawn) [DD(152)], the inhibition at 0.1 µM worked out at 28%, the inhibition at 1 µM turned out to be 57.3% and the inhibition at 0.03 µM was 21%.
